The structures appear in SMILES notation. Read-outs that look alike come from different tables or passages of the source.

Among the data in patent US9492471B2, “Methods of treating a disease or disorder associated with Bruton'S Tyrosine Kinase” (Celgene Avilomics Research, Inc., priority 2013, dated 2016) are inhibition and remaining activity values, retold here.

Common to all, as to experiment: HotSpot kinase profiling
Holding throughout (type): biochemical

One assay concerns the target T1, TLK1 (Homo sapiens, UniProt Q9UKI8).
T1 construct: purchased Reaction Biology Corp
T1 sequence (Q9UKI8 1-766): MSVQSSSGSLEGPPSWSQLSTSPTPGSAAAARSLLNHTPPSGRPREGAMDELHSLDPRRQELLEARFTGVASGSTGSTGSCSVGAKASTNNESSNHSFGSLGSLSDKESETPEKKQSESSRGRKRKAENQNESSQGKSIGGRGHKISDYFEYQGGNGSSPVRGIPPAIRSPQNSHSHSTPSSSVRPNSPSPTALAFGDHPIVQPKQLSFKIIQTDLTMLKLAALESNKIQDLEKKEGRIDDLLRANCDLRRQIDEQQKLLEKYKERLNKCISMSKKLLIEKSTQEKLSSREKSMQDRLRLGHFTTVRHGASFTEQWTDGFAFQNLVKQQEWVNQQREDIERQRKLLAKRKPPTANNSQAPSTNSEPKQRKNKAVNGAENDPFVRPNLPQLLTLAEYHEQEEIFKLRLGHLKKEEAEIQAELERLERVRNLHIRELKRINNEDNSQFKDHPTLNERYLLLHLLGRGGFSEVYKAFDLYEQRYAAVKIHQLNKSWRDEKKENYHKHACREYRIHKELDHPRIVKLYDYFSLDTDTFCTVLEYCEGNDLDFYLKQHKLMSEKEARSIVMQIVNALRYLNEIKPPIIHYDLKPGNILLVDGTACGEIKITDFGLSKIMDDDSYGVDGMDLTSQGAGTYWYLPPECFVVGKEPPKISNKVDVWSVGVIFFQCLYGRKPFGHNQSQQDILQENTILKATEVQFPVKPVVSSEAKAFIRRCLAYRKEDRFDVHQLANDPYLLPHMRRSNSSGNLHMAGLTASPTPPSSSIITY
Put shortly: (§1)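 P81 filtration radiometric readout; 2 h incubation at room temperature; 0.1% phosphoric acid wash; DMSO negative control; % inhibition, mean of replicate runs.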

A further assay has as its target T2, TRKA (Homo sapiens, UniProt P04629).
T2 construct: purchased Reaction Biology Corp
The method in brief: as §1

For the next assay, the target named is T3, LCK2/ICK (Homo sapiens, UniProt Q9UPZ9).
T3 construct: purchased Reaction Biology Corp
T3 sequence (Q9UPZ9 1-632): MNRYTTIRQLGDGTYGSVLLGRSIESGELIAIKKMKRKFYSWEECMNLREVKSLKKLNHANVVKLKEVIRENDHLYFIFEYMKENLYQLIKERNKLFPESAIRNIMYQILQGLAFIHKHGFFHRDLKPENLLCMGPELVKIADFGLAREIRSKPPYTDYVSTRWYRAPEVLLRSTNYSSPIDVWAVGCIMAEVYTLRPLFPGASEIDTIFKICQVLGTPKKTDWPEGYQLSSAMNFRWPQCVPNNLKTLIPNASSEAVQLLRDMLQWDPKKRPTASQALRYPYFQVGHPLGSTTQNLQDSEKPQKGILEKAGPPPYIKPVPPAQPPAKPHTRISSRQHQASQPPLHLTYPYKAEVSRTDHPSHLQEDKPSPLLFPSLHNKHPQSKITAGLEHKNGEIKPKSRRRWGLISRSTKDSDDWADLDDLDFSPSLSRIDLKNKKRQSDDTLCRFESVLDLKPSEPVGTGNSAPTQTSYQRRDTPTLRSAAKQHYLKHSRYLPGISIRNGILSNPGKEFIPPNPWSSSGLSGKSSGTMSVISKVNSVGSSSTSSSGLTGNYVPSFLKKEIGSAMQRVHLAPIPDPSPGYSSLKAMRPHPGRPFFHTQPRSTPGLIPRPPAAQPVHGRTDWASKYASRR
Put shortly:
as §1

The target in the next assay is T4, MNK1 (Homo sapiens, UniProt Q9BUB5).
T4 construct: purchased Reaction Biology Corp
Put shortly:
as §1

[1] abbreviates: read-out: % Enzyme Activity (relative to DMSO controls) Run 1.
Setting [2] is: read-out: % Enzyme Activity (relative to DMSO controls) Run 2.

T4 sequence (Q9BUB5 whole entry): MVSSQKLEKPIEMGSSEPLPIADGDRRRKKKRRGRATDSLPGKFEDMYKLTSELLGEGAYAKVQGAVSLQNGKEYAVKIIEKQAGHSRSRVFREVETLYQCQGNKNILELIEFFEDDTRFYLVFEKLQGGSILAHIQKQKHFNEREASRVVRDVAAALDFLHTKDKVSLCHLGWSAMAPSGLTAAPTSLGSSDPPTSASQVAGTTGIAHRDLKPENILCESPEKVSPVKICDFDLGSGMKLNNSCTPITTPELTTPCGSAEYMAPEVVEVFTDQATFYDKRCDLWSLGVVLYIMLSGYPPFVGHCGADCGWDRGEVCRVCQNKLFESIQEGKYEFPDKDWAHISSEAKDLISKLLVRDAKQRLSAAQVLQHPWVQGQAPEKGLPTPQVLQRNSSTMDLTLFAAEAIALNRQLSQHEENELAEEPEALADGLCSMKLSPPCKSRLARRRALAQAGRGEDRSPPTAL
T2 sequence (P04629 33-796): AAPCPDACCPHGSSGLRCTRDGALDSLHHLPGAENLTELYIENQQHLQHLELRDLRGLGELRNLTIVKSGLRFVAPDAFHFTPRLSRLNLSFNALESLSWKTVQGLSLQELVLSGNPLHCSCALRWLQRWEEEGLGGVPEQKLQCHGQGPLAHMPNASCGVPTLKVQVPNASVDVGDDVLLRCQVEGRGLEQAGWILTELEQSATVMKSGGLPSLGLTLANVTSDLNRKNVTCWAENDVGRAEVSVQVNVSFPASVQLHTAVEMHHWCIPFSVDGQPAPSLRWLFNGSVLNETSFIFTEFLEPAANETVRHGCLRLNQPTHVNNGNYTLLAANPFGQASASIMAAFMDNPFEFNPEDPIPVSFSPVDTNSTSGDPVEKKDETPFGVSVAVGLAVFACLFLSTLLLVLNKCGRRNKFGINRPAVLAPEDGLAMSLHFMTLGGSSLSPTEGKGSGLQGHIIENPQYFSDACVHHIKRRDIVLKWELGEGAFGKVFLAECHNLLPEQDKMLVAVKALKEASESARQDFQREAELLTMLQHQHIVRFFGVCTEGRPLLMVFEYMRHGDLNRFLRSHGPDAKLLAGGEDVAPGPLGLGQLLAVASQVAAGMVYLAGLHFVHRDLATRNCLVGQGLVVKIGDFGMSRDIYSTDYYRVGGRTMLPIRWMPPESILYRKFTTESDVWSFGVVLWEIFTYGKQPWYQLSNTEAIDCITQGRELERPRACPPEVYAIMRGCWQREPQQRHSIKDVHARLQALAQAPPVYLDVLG

For the compound `C=CC(=O)Nc1cccc(Nc2nc(Nc3ccc(OCCOC)c(F)c3)ncc2F)c1` [Compound 2], the inhibition at 3 µM was -2.91% against TLK1, -17.7% against TRKA, 1.98% at LCK2/ICK and 3.98% against MNK1. Further, the remaining activity at 3 µM at TLK1 (setting [1]) came to 102%; on TLK1 (setting [2]), 103%; at TRKA (setting [1]), 117%; on TRKA (setting [2]), 118%; at LCK2/ICK (setting [1]) it was 101%; on LCK2/ICK (setting [2]), 95.1%. The remaining activity at 3 µM amounted to 97.8% at MNK1 (setting [1]) and 94.3% on MNK1 (setting [2]).

Usually inhibition stands for the drop in the measured response relative to a control, in per cent.
